# Laboratory results taken from patent publication EP0563062B1, “HEXAPEPTIDES DERIVING FROM AGLUCOTEICOPLANIN AND A PROCESS FOR PREPARING THEM” (GRUPPO LEPETIT S.p.A., priority 1990, dated 1992).
# Assays:
# Assay in all cases: MIC, microdilution method in broth, in comparison with teicoplanin
# Format in all cases: cell-based
# [1] = test system: Staphylococci and Streptococci; details: relative to teicoplanin; inoculum about 10^5 cfu/ml, 18-24 hours at 37°C
# Description: (§1) The antimicrobial activity, expressed as minimal inhibitory concentration (MIC), of the hexapeptide of formula (I), R = hydrogen, against selected strains of Gram-positive bacteria was determined in comparison with teicoplanin. The microdilution method in Difco Todd-Hewitt broth (Streptococci) or Oxoid Iso-Sensitest broth (Staphylococci) was used.
# [2] = test system: two strains of S. aureus and S. epidermidis showing low sensitivity to teicoplanin; details: Iso-Sensitest broth, 18-24 hours at 37°C
# Description: as §1
# [3] = test system: S. epidermidis and S. haemolyticus, two species of Coagulase-Negative Staphylococci (CNS); details: relative to teicoplanin; Iso-Sensitest broth, inoculum about 10^5 cfu/ml, 18-24 hours at 37°C
# Description: as §1
substance,measurement,setting,value
aglucoteicoplanin hexapeptide,"antimicrobial activity, expressed as minimal inhibitory concentration (MIC)",[1],generally less active than teicoplanin
same,"antimicrobial activity (MIC), fold relative to teicoplanin",[2],four to sixteen times more active
same,"antimicrobial activity, expressed as minimal inhibitory concentration (MIC)",[3],same degree of activity
